Assay results taken from ChEMBL document CHEMBL1156829 (Proc Natl Acad Sci U S A, 2008).

Assays:
Plasmodium falciparum [1] = experiment: NOVARTIS: Inhibition of Plasmodium falciparum W2 (drug-resistant) proliferation in erythrocyte-based infection assay; format: functional, organism-based; details: Plasmodium falciparum, W2; read-out: EC50
[2] = NOVARTIS: Cytotoxicity against human hepatocellular carcinoma cell line (Huh7); format: toxicity, cell-based, Huh-7; details: Huh7 cells (hepatocellular carcinoma cell line)
Plasmodium falciparum [3] = experiment: NOVARTIS: Inhibition of Plasmodium falciparum 3D7 (drug-susceptible) proliferation in erythrocyte-based infection assay; format: functional, organism-based; details: Plasmodium falciparum, 3D7

SMILES | EC50 (Plasmodium falciparum [1]) [nM] | CC50 [2] [µM] | EC50 (Plasmodium falciparum [3]) [nM]
CCCc1c(C(=O)OCC)c2cc(O)ccc2n1-c1ccc(OC)cc1 | 339 | > 100 | 133
Cc1cc(Nc2ccc(I)cc2)n2ncnc2n1 | 3590 | > 100 | 1560
CC(C)CCNc1ncc(C(=O)NCC(C)C)c(NCCc2ccccc2)n1 | 543 | > 10 | 724
CCCCOc1ccc(C(=O)Nc2cc(C)on2)cc1 | 510 | > 100 | 3160
Oc1ccc(Br)cc1CN1CCN(c2ccccn2)CC1 | 438 | 34.6 | 3170
CSc1nc(N)nc(SC2C=CCCC2)c1C#N (configuration not stated) | > 12500 | > 100 | 7060
Cc1sc2sc(-c3ccccc3)c(N)[n+]2c1C | 1630 | > 100 | 1050
CC[N+]1(CCOc2ccc(C34CC5CC(CC(C5)C3)C4)cc2)CCCCC1 | 746 | 58.2 | 1010
COc1cc2nc(Nc3ccc(F)cc3)nc(N)c2cc1OC | 139 | 18.4 | 117
CCCCCCC1CCC(O)(C(C)(O)C(=O)NC2C(=O)N3NCCCC3C(=O)N(O)C(COC)C(=O)NCC(=O)N3NCCCC3C(=O)N(O)C(C)C(=O)OC2C)OC1C (configuration not stated) | 124 | 0.197 | 219
CCC1CN2CCC1CC2[C@@H](O)c1ccnc2ccc(OC)cc12 (some centres not stated) [DIHYDROQUINIDINE] | 25.7 | > 96 | 27.3
COc1cc(NC(=O)Cn2c3ccccc3c(=O)c3ccccc32)cc(OC)c1OC | 816 | > 100 | 2730
CC(NCc1ccccc1)c1cc(Cl)ccc1O (configuration not stated) | 97.2 | 73.3 | 592
CCC(C)CNC(=O)c1ccc(OC2CCN(CC3CCCCC3)CC2)c(Cl)c1 (configuration not stated) | 48.4 | > 13.2 | 78.2
COC(=O)c1c(-c2c(Cl)cccc2Cl)noc1C=CNc1ccccc1 | 8790 | 76.8 | > 12500
COc1cc(-c2cc(C(F)(F)F)n3ncc(C(=O)Nc4cc(C)ccc4O)c3n2)cc(OC)c1OC | 70 | > 100 | 180
Cc1ccc(NC(=O)c2sc3nc4c(c(-c5cccs5)c3c2N)CCCC4)cc1 | 2220 | > 100 | 442
CCCOC(=O)C1=C(C)NC2=C(C(=O)CC(c3ccc(Cl)cc3)C2)C1c1ccc(Cl)cc1 (configuration not stated) | 398 | > 69.8 | 294
O=C1CC(=O)Nc2cc(S(=O)(=O)NC3CCCCCCC3)ccc2N1 | > 796 | > 10 | > 1250
O=C(NCCCN1CCCCC1)c1ccc2c(c1)sc1nc(-c3ccc(F)cc3)cn12 | 870 | > 100 | 694
C/C(=C\c1ccccc1)CN(C(=O)c1ccc(C(C)(C)C)cc1)C(C)C | 535 | > 5.25 | 217
CCc1ccccc1NC(C)=O | 5410 | > 100 | > 12500
Cc1c(C(=O)N2CCC(C)CC2)sc2ncn(CC(=O)N3CCN(c4ccccn4)CC3)c(=O)c12 | 266 | > 10 | > 1250

SMILES | EC50 (Plasmodium falciparum [1]) [nM] | CC50 [2] [µM] | EC50 (Plasmodium falciparum [3]) [nM]
CC1CCN(c2nncc3ccccc23)CC1 | > 6050 | > 100 | > 12500
COc1ccc(C(=O)C(CCC(CNC(C)(C)C)C(=O)c2ccc(OC)cc2)CNC(C)(C)C)cc1 (configuration not stated) | 1190 | > 10 | 1120
CCCCCCC(=O)Oc1ccccc1-c1nc2cc(C)ccn2c1NC(C)(C)CC(C)(C)C | 80.3 | > 10 | 636
Cc1ccc2nc(-c3ccccc3)cc(C(=O)Nc3ccc(Cl)cc3)c2c1 | 1040 | > 10 | > 1610
CC1=C(C(=O)OC(C)C)C(c2ccc([N+](=O)[O-])cc2)C2=C(CC(C)(C)CC2=O)N1 (configuration not stated) | 255 | 40 | 1560
Cc1ccc(Nc2nc(NN=Cc3ccc(-c4ccc([N+](=O)[O-])cc4)o3)nc(N3CCOCC3)n2)cc1Cl | 503 | > 10 | > 598
Cc1n(N)c2ccccc2[n+]1CC(=O)c1ccc([N+](=O)[O-])cc1 | 1140 | > 100 | 1950
c1ccc(CC[n+]2cc(-c3ccccc3)n3c2CCC3)cc1 | 684 | > 100 | 660
COc1ccc(Nc2nc(NN=Cc3cccc([N+](=O)[O-])c3OC)nc(Nc3ccc([N+](=O)[O-])cc3)n2)cc1 | 635 | > 100 | 221
CCCCNC(=O)NC(Cc1c[nH]c2ccccc12)C(=O)NC1CCCCC1 (configuration not stated) | > 28.3 | > 2.02 | > 1250
NS(=O)(=O)c1ccc(CCNC(=O)/C=C/c2ccc3c(c2)OCO3)cc1 | > 583 | > 10 | > 1400
COCCNCCN1CCN(c2ccc(C)cc2)C[C@@H]1c1ccccc1 | 548 | 11.2 | 436
COC(=O)[C@@H]1C[C@@H](NC(=O)c2ccc(OC)cc2OC)CN1Cc1cccc2ccccc12 | 1490 | > 100 | 4690
COc1ccc(C2C(C(=O)Nc3cc(C)on3)c3ccccc3C(=O)N2C2CCCCC2)cc1 (configuration not stated) | > 1030 | > 10 | 895
CC1CC2(C)Oc3ccccc3CC2C(C)C1CNCCCN(C)C (configuration not stated) | 192 | 4.79 | 241
CC(C=NNC(N)=S)=NNC(N)=S | 7.23 | > 100 | 8.94
CCCN(CCC)S(=O)(=O)c1cc(Br)cc2c1N(C(=O)CC)CC2 | 760 | > 100 | 476
CCCCCCCCCC(=O)N1CCN(C(CC)c2nc3ccccc3c(=O)n2C)CC1 (configuration not stated) | 267 | > 10 | 283
CCOC(=O)CSc1nc2c(sc(=S)n2-c2ccc(Cl)c(C)c2)c(=O)n1-c1ccccc1OC | > 884 | > 10 | > 1250
O=[N+]([O-])c1ccc(S(=O)(=O)NCCCCNc2ccnc3cc(Cl)ccc23)cc1 | 275 | 9.67 | 934
N=c1c2c(n(Cc3ccc(F)cc3)c3c1CCC3)CCC2 | 202 | > 100 | 266
O=C1c2ccccc2C2=Nc3ccccc3SC(c3ccccc3F)C12 (configuration not stated) | 278 | 22.9 | 209
CN(C)C(=O)CN(C)C(=O)c1cnc2scc(C(C)(C)C)n2c1=O | > 1250 | > 10 | > 820

SMILES | EC50 (Plasmodium falciparum [1]) [nM] | CC50 [2] [µM] | EC50 (Plasmodium falciparum [3]) [nM]
CCCCCc1ccc(C(=O)NCCCCNc2ccnc3cc(Cl)ccc23)cc1 | 353 | > 10 | 386
C=CCCC(=O)N1CCC(C(=O)Nc2ccc(-c3nc4ccccc4o3)cc2)CC1 | 1520 | > 100 | 5420
CN(CCCNc1nc2ccccc2c2nc(-c3cccnc3)nn12)Cc1ccccc1 | > 996 | > 10 | > 771
CCc1ccc(-n2c(C(CC)N(CCC(C)C)C(=O)Nc3ccc(Cl)c(Cl)c3)nc3ccccc3c2=O)cc1 (configuration not stated) | > 830 | > 10 | > 1250
C=CCNC(=O)c1ccc2c(c1)N=CN(CCOc1ccccc1)C2 | 419 | > 10 | 441
CN(C)CCNC(=S)Nc1cccc(C(F)(F)F)c1 | 897 | > 100 | 4030
Cc1cccc(C(=O)NCc2nnc(S)n2-c2cccc(C(F)(F)F)c2)c1 | 750 | > 100 | 2180
CCCCCCCCCCCC(=O)Oc1ccccc1-c1nc2ccccn2c1NC(C)(C)CC(C)(C)C | 93.6 | > 10 | 1260
OC1=C2C(=Nc3ccccc3SC2c2cccs2)c2ccccc21 (configuration not stated) | < 2.47 | 49.5 | 42.8
Cc1cccc(-c2nc3cc(NC(=O)c4ccc([N+](=O)[O-])o4)ccc3o2)c1 | > 12500 | > 100 | 1720
COc1cc2nc(NCc3ccccn3)n3nc(-c4ccccc4)nc3c2cc1OC | 1910 | > 100 | 3770
Clc1nc(Nc2ccccc2)nc(N2CCCCC2)n1 | 381 | 48.3 | > 12500
COc1ccc(C(=O)N2C(C(=O)NCCC(C)C)CSC2c2ccc(C(C)(C)C)cc2)cc1 (configuration not stated) | 1120 | > 4.48 | 797
O=C(Nc1cccc(OC(=O)c2ccc([N+](=O)[O-])cc2)c1)c1ccc([N+](=O)[O-])cc1 | 270 | > 100 | > 12500
COc1cccc(-n2sc3c(c2=S)-c2cc(OC)ccc2NC3(C)C)c1 | 1480 | > 10 | > 991
CCCCCCN(C(=O)c1cccc([N+](=O)[O-])c1)C(CC)c1nc2ccccc2c(=O)n1-c1ccccc1OC (configuration not stated) | 355 | > 6.45 | 983
Cc1cc(NS(=O)(=O)c2ccc(N=Cc3ccc(C#N)cc3)cc2)no1 | > 582 | > 10 | > 1640
Clc1ccc(-c2c[n+](Cc3ccccc3Cl)c3n2CCC3)cc1Cl | 1310 | > 30.9 | 749
CCCN1CCc2c(sc3nc(SCC(=O)c4ccccc4)nc(N)c23)C1 | 1010 | > 100 | 1420
CCCCNCCN1CCN(c2ccc(OC)cc2)C[C@@H]1c1ccccc1 | 26.7 | > 10 | > 1280
Cc1ccc(-c2c[n+](Cc3ccc(Cl)cc3)c3n2CCC3)cc1 | 153 | > 75.7 | 373
CCN1C(C)=C(C)S/C1=C\c1ccc2cc(C)ccc2[n+]1C | 170 | 5.72 | 227
c1ccc2c(c1)ccc[n+]2CCCCCC[n+]1cccc2ccccc21 | 780 | > 10 | 406
